The source of these data is patent publication US20240109917A1 (ACTELION PHARMACEUTICALS LTD, priority 2020, published 2024).

The target in test [1] is His6-TEV-PDGFRβ (557-1016) (Homo sapiens (Human), UniProt P09619). The test can be described thus: PDGFRβ HTRF Assay. Type of test: biochemical. The note with it: read-out: PDGFR HTRF IC50. An outline of the steps:
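HTRF KinEASE-TK readout (665/620 nm ratio) of TK-biotin substrate phosphorylation by His-tagged PDGFRβ kinase domain. Enzyme and inhibitor preincubated 30 min, then ATP/substrate added for 3 h at room temperature before 60 min EDTA quench/detection.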
On the technique in general: TR-FRET usually uses a lanthanide donor and a delayed reading to cut background.

Test [2] addresses PDGFRβ (Rattus norvegicus (Rat), UniProt Q05030). The test can be described thus: PDGFRβ Cellular Assay (PDGFRb P-Y751 HTRF in A10 cells stimulated with PDGF-BB). Type of test: cell-based. The note with it: read-out: PDGFR Cellular IC50. As for the experimental part: II. Methods and Procedures
Cell Culture and Preparation: Cells are cultured according to ATCC procedure (5) with the addition of the antibiotic penicillin-streptomycin. If working from frozen, cells should be thawed according to ATCC procedure. Depending on the cell density of frozen vial, cells will need time to recover from thaw. An 80% confluent T75 flask should be enough for one 384 well plate.
Stock Solutions: Rat PDGFBB. A 100 ug/mL stock is prepared by reconstituting 50 ug in 500 uL of 4 mM HCl and 0.1% BSA. It can be stored for a month at 4° C., or aliquoted out and frozen in the −20/−80° C. to avoid multiple free-thaw cycles.
Freshly Prepared Solutions:
1× Cisbio cell lysis buffer. The cell lysis buffer is diluted 4-fold with molecular grade water. The blocking agent is then diluted 25-fold in the diluted lysis buffer.
Antibody solutions. Equal amounts d2 and cryptate antibody are diluted 20-fold in detection buffer.
Rat PDGFBB. A working stock of 100 ng/mL is created from the stock solution in 10% FBS culture media.
Step 1: Plating Cells: Media from the A10 cell flask is aspirated. The cells are rinsed with PBS and then trypsinized to disperse the cell layer. The cells are then pelleted are resuspended to 1.25e5 cells/mL. […] Plates are covered and placed in the incubator (37° C. 5% CO2) overnight to allow cells to adhere.
Step 2: Compound Dispense: Approximately 18 hours after plating, dispense 40 nL compound onto cells using Echo. Column 12 is the neutral control DMSO, column 24 is the inhibitor control 10 mM Imatinib (10 uM final assay concentration). The plate is returned to the incubator for 3 hours.
After 10 minutes the media is removed by flicking the plate.
Step 4: Cell lysis and antibody addition: 20 uL lysis buffer per well is added to the plate via Tempest. 5 uL antibody solution is added per well via the Tempest. The plate is placed on the shaker at 230 rpm for 1 hour at room temperature.
Step 5: Detection: The plate is read using the HTRF module on the BMG Pherastar. Data is analyzed using Genedata Screener.
III. Calculations and Formulas
% Inhibition: % Inhibition=(NC−sample)/(NC−PC)*100 where NC is the mean of negative control (reactions without inhibitor), and PC is the mean of positive control (10 μM imatinib).
IC50 values are determined from a 4-parameter fit, using the following equation: Y=Bottom+(Top−Bottom)/(1+10((Log IC50−X)*Hill slope)), where X=log10 of the compound concentration; top can be defined by PC; bottom defined by NC.

For test [3], the target named is Tb-labeled inactive PDGFRβ (Homo sapiens (Human), UniProt P09619). The test can be described thus: PDGFRβ LanthaScreen Assay. Type of test: binding. The note with it: read-out: PDGFR Lantha IC50.
Tb-labeled inactive PDGFRβ, sequence (P09619 33-1106): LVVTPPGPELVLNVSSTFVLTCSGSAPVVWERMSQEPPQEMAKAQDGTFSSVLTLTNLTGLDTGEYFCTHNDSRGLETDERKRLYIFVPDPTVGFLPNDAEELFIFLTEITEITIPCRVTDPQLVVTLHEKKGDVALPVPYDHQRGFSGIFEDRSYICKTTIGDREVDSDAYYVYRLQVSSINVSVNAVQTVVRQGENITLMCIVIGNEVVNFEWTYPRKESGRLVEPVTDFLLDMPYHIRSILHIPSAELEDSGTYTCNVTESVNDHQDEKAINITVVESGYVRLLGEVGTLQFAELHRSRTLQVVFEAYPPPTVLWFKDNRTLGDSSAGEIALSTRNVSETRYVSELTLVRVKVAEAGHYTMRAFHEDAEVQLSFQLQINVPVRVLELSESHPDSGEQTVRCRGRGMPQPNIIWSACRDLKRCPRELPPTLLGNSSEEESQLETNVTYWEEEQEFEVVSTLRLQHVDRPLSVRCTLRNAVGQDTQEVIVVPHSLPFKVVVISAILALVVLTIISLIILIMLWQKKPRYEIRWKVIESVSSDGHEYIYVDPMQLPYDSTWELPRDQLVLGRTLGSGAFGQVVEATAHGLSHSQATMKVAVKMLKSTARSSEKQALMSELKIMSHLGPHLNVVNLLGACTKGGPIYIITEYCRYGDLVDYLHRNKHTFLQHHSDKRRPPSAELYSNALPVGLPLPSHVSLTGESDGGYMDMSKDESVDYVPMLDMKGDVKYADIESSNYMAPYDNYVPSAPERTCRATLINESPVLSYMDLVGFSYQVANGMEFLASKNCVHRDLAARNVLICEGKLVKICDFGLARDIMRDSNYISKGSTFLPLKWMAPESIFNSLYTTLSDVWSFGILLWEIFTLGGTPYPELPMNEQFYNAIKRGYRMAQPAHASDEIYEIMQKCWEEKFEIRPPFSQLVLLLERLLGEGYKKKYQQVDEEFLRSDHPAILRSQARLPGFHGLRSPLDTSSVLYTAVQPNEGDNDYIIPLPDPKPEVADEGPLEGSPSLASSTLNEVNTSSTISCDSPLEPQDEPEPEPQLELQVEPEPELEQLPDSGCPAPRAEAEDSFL

His6-TEV-PDGFRβ (557-1016), sequence (P09619 557-1016): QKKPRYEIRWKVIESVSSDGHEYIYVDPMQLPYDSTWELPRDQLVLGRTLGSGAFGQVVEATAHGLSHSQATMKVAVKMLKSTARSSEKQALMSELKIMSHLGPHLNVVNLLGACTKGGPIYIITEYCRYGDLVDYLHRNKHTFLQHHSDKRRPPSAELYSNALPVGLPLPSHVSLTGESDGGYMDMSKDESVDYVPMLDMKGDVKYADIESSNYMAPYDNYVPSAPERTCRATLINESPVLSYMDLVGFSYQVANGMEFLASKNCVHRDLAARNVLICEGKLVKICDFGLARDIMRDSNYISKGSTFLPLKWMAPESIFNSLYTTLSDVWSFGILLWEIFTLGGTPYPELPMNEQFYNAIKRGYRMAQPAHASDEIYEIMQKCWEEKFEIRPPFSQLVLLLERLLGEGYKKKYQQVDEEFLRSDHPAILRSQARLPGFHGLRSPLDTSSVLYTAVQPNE
PDGFRβ, sequence (Q05030 32-1097): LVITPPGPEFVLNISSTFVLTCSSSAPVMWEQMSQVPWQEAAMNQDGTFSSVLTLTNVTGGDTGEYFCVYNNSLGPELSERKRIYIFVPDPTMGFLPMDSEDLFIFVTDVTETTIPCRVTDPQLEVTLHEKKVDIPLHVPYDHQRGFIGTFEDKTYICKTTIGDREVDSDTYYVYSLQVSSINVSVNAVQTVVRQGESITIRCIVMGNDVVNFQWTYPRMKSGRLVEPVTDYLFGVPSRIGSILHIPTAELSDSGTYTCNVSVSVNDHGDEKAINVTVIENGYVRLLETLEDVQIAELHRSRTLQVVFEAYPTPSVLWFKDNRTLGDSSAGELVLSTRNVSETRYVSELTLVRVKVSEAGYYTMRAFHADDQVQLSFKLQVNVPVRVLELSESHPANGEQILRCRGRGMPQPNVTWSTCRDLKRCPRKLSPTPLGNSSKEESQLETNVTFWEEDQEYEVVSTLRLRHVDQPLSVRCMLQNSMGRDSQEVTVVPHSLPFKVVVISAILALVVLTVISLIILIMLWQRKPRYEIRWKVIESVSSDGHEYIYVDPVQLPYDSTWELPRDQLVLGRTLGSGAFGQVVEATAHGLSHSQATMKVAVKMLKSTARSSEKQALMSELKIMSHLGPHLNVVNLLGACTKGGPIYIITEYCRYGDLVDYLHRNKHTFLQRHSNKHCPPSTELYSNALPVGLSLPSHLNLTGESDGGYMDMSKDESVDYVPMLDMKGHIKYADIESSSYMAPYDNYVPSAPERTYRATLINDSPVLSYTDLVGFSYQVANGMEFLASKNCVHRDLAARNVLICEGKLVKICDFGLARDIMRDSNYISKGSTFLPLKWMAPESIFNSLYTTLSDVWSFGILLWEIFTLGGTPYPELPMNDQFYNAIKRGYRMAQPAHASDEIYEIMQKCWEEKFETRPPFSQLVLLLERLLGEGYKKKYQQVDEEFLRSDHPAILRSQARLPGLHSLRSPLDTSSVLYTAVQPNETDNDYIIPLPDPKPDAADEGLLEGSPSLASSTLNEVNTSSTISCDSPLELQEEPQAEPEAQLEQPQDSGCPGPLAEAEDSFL

As a reminder, the IC50 is the midpoint of a concentration-inhibition curve. With `Cc1ncc(NC(=O)CCN2CCC3(CC3)C2)cc1NC(=O)c1cnn2cc(-c3cnn(C)c3)sc12` [Example 104, N-(5-(3-(5-azaspiro[2.4]heptan-5-yl)propanamido)-2-methylpyridin-3-yl)-2-(1-methyl-1H-pyrazol-4-yl)pyrazolo[5,1-b]thiazole-7-carboxamide], the IC50 in test [1] came to 0.4 nM; in test [2], 9.2 nM; in test [3] it was 9.8 nM.

With `Cc1ncc(C(=O)NCCN2CCC(F)(F)CC2)cc1NC(=O)c1cnn2cc(-c3ccncc3)sc12` [Example 154, N-(5-((2-(4,4-difluoropiperidin-1-yl)ethyl)carbamoyl)-2-methylpyridin-3-yl)-2-(pyridin-4-yl)pyrazolo[5,1-b]thiazole-7-carboxamide], the IC50 worked out at 0.3 nM in test [1], 8.7 nM in test [2] and 2.4 nM in test [3].

For the compound `Cc1ncc(C(=O)NCCN2CCCC2(C)C)cc1NC(=O)c1cnn2cc(-c3ccc(=O)[nH]n3)sc12` [Example 141, N-(5-((2-(2,2-dimethylpyrrolidin-1-yl)ethyl)carbamoyl)-2-methylpyridin-3-yl)-2-(6-oxo-1,6-dihydropyridazin-3-yl)pyrazolo[5,1-b]thiazole-7-carboxamide], the results for the IC50 in test [1], in test [2] and in test [3] were 1.8 nM, more than 3000 nM and 18.6 nM, respectively.

Turning to `Cc1ncc(C(=O)NCCN2CCC3(CCOC3)C2)cc1NC(=O)c1cnn2cc(-c3cnn(C)c3)sc12` (stereo not drawn) [Example 116, N-(5-((2-(2-oxa-7-azaspiro[4.4]nonan-7-yl)ethyl)carbamoyl)-2-methylpyridin-3-yl)-2-(1-methyl-1H-pyrazol-4-yl)pyrazolo[5,1-b]thiazole-7-carboxamide], the IC50 in test [1] is 0.5 nM; in test [2], 74.7 nM; in test [3] it was 12.7 nM.

For the compound `COCCn1cc(-c2cn3ncc(C(=O)Nc4cc(NC(=O)CCN5CC6CCC5CC6)cnc4C)c3s2)cn1` [Example 100, N-(5-(3-(2-azabicyclo[2.2.2]octan-2-yl)propanamido)-2-methylpyridin-3-yl)-2-(1-(2-methoxyethyl)-1H-pyrazol-4-yl)pyrazolo[5,1-b]thiazole-7-carboxamide], the IC50 came out at 0.5 nM in test [1], 33.4 nM in test [2] and 7.5 nM in test [3].

Take `Cc1ncc(C(=O)NCCN2CCCC2(C)C)cc1NC(=O)c1cnn2cc(-c3cn(C)nc3C)sc12` [Example 174, 2-(1,3-dimethyl-1H-pyrazol-4-yl)-N-(5-((2-(2,2-dimethylpyrrolidin-1-yl)ethyl)carbamoyl)-2-methylpyridin-3-yl)pyrazolo[5,1-b]thiazole-7-carboxamide]: the IC50 stood at 0.3 nM in test [1], 9.9 nM in test [2] and 2.5 nM in test [3].

Turning to `Cc1ncc(C(=O)NCCN2CCC(F)(F)C2)cc1NC(=O)c1cnn2cc(-c3cnn(C)c3)sc12` [Example 120, N-(5-((2-(3,3-difluoropyrrolidin-1-yl)ethyl)carbamoyl)-2-methylpyridin-3-yl)-2-(1-methyl-1H-pyrazol-4-yl)pyrazolo[5,1-b]thiazole-7-carboxamide], the IC50 in test [1] turned out to be 0.4 nM; in test [2] it was 9.3 nM; in test [3] it was 4.5 nM.

In the case of `Cc1ncc(NC(=O)CCCN2CCC[C@@H]2C)cc1NC(=O)c1cnn2cc(-c3cnn(C)c3)sc12` [Example 106, (S)-2-(1-methyl-1H-pyrazol-4-yl)-N-(2-methyl-5-(4-(2-methylpyrrolidin-1-yl)butanamido)pyridin-3-yl)pyrazolo[5,1-b]thiazole-7-carboxamide], the values for the IC50 in test [1], in test [2] and in test [3] were 1.3 nM, 461 nM and 67 nM, respectively.

Consider `Cc1ncc(C(=O)NCCN2CCC3(CC3)C2)cc1NC(=O)c1cnn2cc(-c3cn(C)cn3)sc12` [Example 162, N-(5-((2-(5-azaspiro[2.4]heptan-5-yl)ethyl)carbamoyl)-2-methylpyridin-3-yl)-2-(1-methyl-1H-imidazol-4-yl)pyrazolo[5,1-b]thiazole-7-carboxamide], for which the IC50 in test [1] worked out at 0.4 nM; in test [2], 660 nM; in test [3], 7.7 nM.

For the compound `Cc1ncc(C(=O)NCCN2CC(F)(F)C2)cc1NC(=O)c1cnn2cc(-c3ccncc3)sc12` [Example 152, N-(5-((2-(3,3-difluoroazetidin-1-yl)ethyl)carbamoyl)-2-methylpyridin-3-yl)-2-(pyridin-4-yl)pyrazolo[5,1-b]thiazole-7-carboxamide], the figures for the concentration for half-maximal inhibition (IC50) in test [1], in test [2] and in test [3] were 0.4 nM, 66.2 nM and 12.4 nM, respectively.

Turning to `Cc1ncc(C(=O)NCCN2CCCC2(C)C)cc1NC(=O)c1cnn2cc(-c3cnn(CCO)c3)sc12` [Example 140, N-(5-((2-(2,2-dimethylpyrrolidin-1-yl)ethyl)carbamoyl)-2-methylpyridin-3-yl)-2-(1-(2-hydroxyethyl)-1H-pyrazol-4-yl)pyrazolo[5,1-b]thiazole-7-carboxamide], the 50% inhibitory concentration (IC50) was determined as 0.5 nM in test [1], 309 nM in test [2] and 4.9 nM in test [3].

On to `Cc1ncc(C(=O)NCCN2CCC3(CC3)C2)cc1NC(=O)c1cnn2cc(-c3ccncc3)sc12` [Example 153, N-(5-((2-(5-azaspiro[2.4]heptan-5-yl)ethyl)carbamoyl)-2-methylpyridin-3-yl)-2-(pyridin-4-yl)pyrazolo[5,1-b]thiazole-7-carboxamide], for which the 50% inhibitory concentration (IC50) worked out at 0.4 nM in test [1], 106 nM in test [2] and 18 nM in test [3].

On to `Cc1ncc(NC(=O)NCC2CCN(C(C)C)CC2)cc1NC(=O)c1cnn2cc(-c3cnn(C)c3)sc12` [Example 109, N-(5-(3-((1-isopropylpiperidin-4-yl)methyl)ureido)-2-methylpyridin-3-yl)-2-(1-methyl-1H-pyrazol-4-yl)pyrazolo[5,1-b]thiazole-7-carboxamide], for which the IC50 in test [1] is 38.9 nM; in test [2] it was more than 3000 nM; in test [3], 1900 nM.

On to `Cc1ncc(C(=O)NCCN2CC(C)(C)C2)cc1NC(=O)c1cnn2cc(-c3cn(C)cn3)sc12` [Example 161], for which the values for the 50% inhibitory concentration (IC50) in test [1], in test [2] and in test [3] were 0.5 nM, 123 nM and 11.9 nM, respectively.

Consider `Cc1ncc(C(=O)NCCN2CC3CCC2CC3)cc1NC(=O)c1cnn2cc(-c3cnn(C)c3C)sc12` [Example 171, N-(5-((2-(2-azabicyclo[2.2.2]octan-2-yl)ethyl)carbamoyl)-2-methylpyridin-3-yl)-2-(1,5-dimethyl-1H-pyrazol-4-yl)pyrazolo[5,1-b]thiazole-7-carboxamide], for which the half-maximal inhibitory concentration (IC50) came out at 0.3 nM in test [1], 34.8 nM in test [2] and 2.6 nM in test [3].

In the case of `Cc1ncc(NC(=O)CCN2CCCC23CC3)cc1NC(=O)c1cnn2cc(-c3cnn(C)c3)sc12` [Example 98], the IC50 in test [1] worked out at 0.3 nM; in test [2], 4.7 nM; in test [3], 2.9 nM.

Take `Cc1ncc(C(=O)NCCN2CCC(F)(F)CC2)cc1NC(=O)c1cnn2cc(-c3cccnc3)sc12` [Example 157, N-(5-((2-(4,4-difluoropiperidin-1-yl)ethyl)carbamoyl)-2-methylpyridin-3-yl)-2-(pyridin-3-yl)pyrazolo[5,1-b]thiazole-7-carboxamide]: the IC50 in test [1] came to 0.6 nM; in test [2], 21.2 nM; in test [3] it was 5.9 nM.
